Results on four compounds are retold here after PMC10747733, “N-Substituted 2-(Benzenosulfonyl)-1-Carbotioamide Derivatives Exert Antimicrobial and Cytotoxic Effects via Aldehyde Dehydrogenase Pathway: Synthesis, In Silico and In Vitro Studies” (Pharmaceuticals, 2023).

Experiment [1] has as its system AGS (gastric adenocarcinoma). In words: MTT antiproliferative activity assay. Format: cell-based, human. The note with it: for decrease in viability: AGS; for TI after 24h / TI after 48h: IC50 WS1 / IC50 AGS. As to the method:
(§1) Cancer cell lines originating from different organs, i.e., AGS (stomach—gastric adenocarcinoma), HepG2 (hepatocellular carcinoma), Du145, PC3 (prostate cancer), 769-P (renal cell carcinoma) and physiology cell line WS1 (fibroblasts), were purchased from ATCC. The cell cultures were carried out in an appropriate medium (DMEM or MEM) containing 10% heat-inactivated FBS with penicillin (100 U/mL) and streptomycin (100 U/mL). The cells were kept in a humidified incubator at 37 °C and 5% CO2 and passaged three times before experimenting.
(§2) The antiproliferative properties test for each cancer line was performed in 96-well plates, in which cells with a density of 2 × 10^4 were seeded in 100 µL of medium containing 10% FBS. After 24 h of allowing the cells to attach, the wells were washed with DPBS (Dulbecco’s phosphate-buffered saline) solution and the cells were incubated in fresh medium w/o FBS containing 1 µM, 10 µM, 50 µM, 200 µM or 500 µM of the tested compounds for 24 and 48 h. All substances were first dissolved in DMSO to prepare stock solutions that were then diluted in the medium to obtain a maximum of 0.1% w/v DMSO in the final solution. Each concentration was tested in triplicate. DMSO at a concentration of 0.1% in the medium was also used as a negative control. The antiproliferative activity of the compounds was tested using the MTT test. After each incubation time, the medium containing the test compounds and the negative control was removed, the cells were washed with DPBS solution, and then 100 µL of FBS-free and antibiotic-free fresh medium containing 0.5 mg/mL MTT was added to each well. The plates were incubated for 3 h in an incubator at 37 °C and 5% CO2. After incubation, the medium was removed, the cells were washed with 100 µL of PBS, and 100 µL of DMSO was added to each well to dissolve the purple formazan. The plate was shaken for 3 min and the absorbance was read at 570 nm (BioTek Synergy H1 microplate reader). Cell viability was calculated from the mean of the OD readings. Based on the dose–response curve, IC50 values were calculated (MS Excel). […] Therapeutic index (TI) results were calculated as the ratio of the IC50 of physiological cells to the IC50 of tumor cells.

A further experiment deals with Du145 (prostate cancer). The experiment in a line: MTT antiproliferative activity assay. In kind it is cell-based, human. The following applies: for concentration at which a statistically significant decrease in viability was observed: tested 1–500 µM; for TI after 24h / TI after 48h: IC50 WS1 / IC50 DU145. As to the method:
as §1, §2
(In general: Formazan colour is commonly taken as a measure of viable cells.)

For experiment [2], the system named is HepG2 (hepatocellular carcinoma). In words: MTT antiproliferative activity assay. The note with it: for TI after 24h / TI after 48h: IC50 WS1 / IC50 HepG2. Format: cell-based, human. As to the method: as §1, §2
The test system of a further experiment is WS1 (fibroblasts). In words: MTT antiproliferative activity assay. In kind it is cell-based, human. The note with it: for concentration at which a statistically significant decrease in viability was observed: tested 1–500 µM. As to the method:
as §1, §2

Another experiment concerns Candida spp. In words: Broth microdilution, summary over reference Candida spp. The following applies: for MFC: Candida, yeasts; for MFC/MIC: reference yeasts, except WZ4 towards C. parapsilosis. Format: cell-based. From the text:
Reference strains of microorganisms that came from American Type Culture Collection (ATCC) (Manassas, VA, USA) were used for this study. The representative Gram-positive bacteria were as follows: Staphylococcus aureus ATCC 25923, Staphylococcus aureus ATCC 29213, Staphylococcus aureus ATCC 43300, Staphylococcus epidermidis ATCC 12228, Enterococcus faecalis ATCC 29212, Micrococcus luteus ATCC 10240, Bacillus subtilis ATCC 6633 and Bacillus cereus ATCC 10876. While, those of Gram-negative bacteria were as follows: Bordetella bronchiseptica ATCC 4617, Escherichia coli ATCC 25922, Klebsiella pneumoniae ATCC 13883, Proteus mirabilis ATCC 12453, Salmonella Typhimurium ATCC 14028 and Pseudomonas aeruginosa ATCC 9027. Moreover, the following fungi belonging to yeasts were used: Candida albicans ATCC 10231, Candida albicans ATCC 2091, Candida parapsilosis ATCC 22019, Candida glabrata ATCC 90030 and Candida krusei ATCC 14243.
The new compounds WZ1–WZ4 were assayed for both antibacterial and antifungal activity using the broth microdilution method in accordance with the European Committee on Antimicrobial Susceptibility Testing (EUCAST) and Clinical and Laboratory Standards Institute (CLSI) guidelines. The microorganisms were grown at 35 °C for 18–24 h on appropriate media (nutrient agar and Sabouraud for bacteria and fungi, respectively) (BioMaxima S.A., Lublin, Poland). Next, microbial suspensions with an optical density of 0.5 McFarland standard scale (in sterile 0.85% NaCl) were prepared. In turn, the tested compounds were initially diluted at 50 mg/mL in dimethyl sulfoxide (DMSO) and the broth microdilution method was used to assess their minimum inhibitory concentrations (MICs). For these studies, selective broth Mueller-Hinton (MH) (BioMaxima S.A., Lublin, Poland) and RPMI (Roswell Park Memorial Institute) 1640 with MOPS (3-(N-Morpholino)propanesulfonic acid) (Sigma-Aldrich Chemicals, St. Louis, MO, USA) were used for bacteria and fungi, respectively. The antimicrobial effect of compounds WZ1–WZ4 was determined in the concentration range from 2000 to 0.98 µg/mL.
Then, the microbial suspensions were introduced into each well of the microplate and incubated for 18–24 h at 35 °C. […] The reference drugs ciprofloxacin or vancomycin (against bacteria) and nystatin (against fungi) (Sigma-Aldrich Chemicals, St. Louis, MO, USA) were also used. Next, the values of the minimum bactericidal concentration (MBC) and minimum fungicidal concentration (MFC) of WZ1–WZ4 were assessed. For this purpose, the cultures from each MIC determination well were transferred to a suitable solid medium and incubated under appropriate conditions. The lowest concentrations of compounds without microbial growth were read as MBC or MFC. The studies were performed in triplicate and representative data were gathered.
In turn, the MBC/MIC or MFC/MIC ratios were used to assess bactericidal/fungicidal (MBC/MIC or MFC/MIC ≤ 4) and bacteriostatic/fungistatic (MBC/MIC or MFC/MIC > 4) effect of these compounds [93].
A general note: Dilution methods test growth across graded concentrations, often in twofold steps.

Each structure is given as a SMILES string. Values after ≈ are worked out from the molar mass of the structure shown. Values joined by “and” are separate entries in the source; they are usually repeats but may differ in a detail not shown here. Identical values can stand only once.

Regarding `O=S(=O)(NNC(=S)NC1CCCCC1)c1ccccc1` [WZ1, 2-(Benzenesulfonyl)-N-Cyclohexylhydrazine-1-Carbothioamide], the decrease in viability in experiment [1] (24 h, 1 µM) is recorded as ~ 16%; in experiment [1] (48 h, 50 µM) it was ~ 6%; in the experiment on Du145 (prostate cancer) (Du145, 24 h, 1 µM) it was ~ 7%; in experiment [2] (HepG2, 24 h, 200 µM), ~ 15%; in experiment [2] (HepG2, 48 h, 10 µM), ~ 7%. The “TI after 24h” value in experiment [1] (24 h) is recorded as 14.043; with Du145 (prostate cancer) (24 h) it was 16.001; in experiment [2] (24 h), 0.003. Besides, the entries for the “TI after 48h” value (in experiment [1] (48 h); in the experiment with Du145 (prostate cancer) (48 h); in experiment [2] (48 h)) were 0.952, 0.170 and 7.442, respectively. Besides, the “concentration at which a statistically significant decrease in viability was observed” value in the experiment with Du145 (prostate cancer) (Du145, 48 h) stood at 200 µM; with WS1 (fibroblasts) (24 h), 200 µM; with WS1 (fibroblasts) (48 h), 200 µM. Further, in the experiment with Candida spp. (reference Candida spp.), the anticandidal bioactivity class result is “no anticandidal bioactivity”.
By viability is commonly meant a read-out of living cells in per cent, often relative to untreated cells. In the case of `CCCCNC(=S)NNS(=O)(=O)c1ccccc1` [WZ2, 2-(Benzenesulfonyl)-N-Butylhydrazine-1-Carbothioamide], the decrease in viability in experiment [1] (24 h, 1 µM) is given as ~ 8%; in experiment [1] (48 h, 1 µM) it was ~ 6%; in experiment [2] (HepG2, 24 h, 500 µM), ~ 22%; in the experiment with WS1 (fibroblasts) (48 h, 200 µM), ~ 17%; with WS1 (fibroblasts) (48 h, 500 µM), ~ 23%. The figures for the “TI after 24h” value (in experiment [1] (24 h); in the experiment with Du145 (prostate cancer) (24 h); in experiment [2] (24 h)) were 1,905,977,431.260, 2,352,384.152 and 205,540,220.291, respectively. The “TI after 48h” value in experiment [1] (48 h) is reported as 0.368; in the experiment on Du145 (prostate cancer) (48 h), 28.982; in experiment [2] (48 h), 15,880.957. Further, the viability at 50 µM with Du145 (prostate cancer) (Homo sapiens, DU-145, Du145, 24 h, 50 µM, read-out: viability (dropped to)) was roughly 80%. The viability at 1 µM with Du145 (prostate cancer) (Homo sapiens, DU-145, Du145, 48 h, 1 µM, read-out: viability (dropped to)) was roughly 92%. Further, the “viability (decreased to)” value in experiment [2] (HepG2, 48 h, 1 µM) is ~ 82%. In addition, the “concentration at which a statistically significant decrease in viability was observed” value with WS1 (fibroblasts) (24 h) is listed as “no reduction in viability”. The anticandidal bioactivity class result in the experiment on Candida spp. (reference Candida spp.) is recorded as “no anticandidal bioactivity”.
As a reminder, the MIC is the lowest concentration found to suppress growth. Read a low MIC as a more susceptible organism. A word on the MFC: it is the lowest tested concentration that kills the fungus rather than only halting it. A high value points to weaker fungicidal potency. In the case of `CCCCCCNC(=S)NNS(=O)(=O)c1ccccc1` [WZ3, 2-(Benzenesulfonyl)-N-Hexylhydrazine-1-Carbothioamide], the decrease in viability is recorded as ~ 9% in experiment [1] (24 h, 1 µM); ~ 9% in experiment [1] (48 h, 1 µM); ~ 19% in the experiment on Du145 (prostate cancer) (Du145, 24 h, 200 µM); ~ 6% with Du145 (prostate cancer) (Du145, 48 h, 50 µM); ~ 31% in experiment [2] (HepG2, 24 h, 200 µM); ~ 7% in experiment [2] (HepG2, 48 h, 1 µM). Moreover, the decrease in viability in the experiment with WS1 (fibroblasts) (24 h, 1 µM) is ~ 12%; in the experiment on WS1 (fibroblasts) (48 h, 500 µM), ~ 64%. Besides, the results for the “TI after 24h” value (in experiment [1] (24 h); in the experiment with Du145 (prostate cancer) (24 h); in experiment [2] (24 h)) were 1.169, 0.476 and 1.701, respectively. Moreover, the “TI after 48h” value in experiment [1] (48 h) is recorded as 1.284; in experiment [2] (48 h), 2.426. Further, the “concentration at which a statistically significant decrease in viability was observed” value in the experiment on WS1 (fibroblasts) (24 h) is 1 to 500 µM; in the experiment with WS1 (fibroblasts) (48 h), “no significant change in viability”. The MIC in the experiment with Candida spp. (C. albicans and C. krusei) fell in the range of 250 to 500 µg/mL (≈ 792 to 1580 µM); with Candida spp. (reference Candida spp.), 125 to 2000 µg/mL (≈ 396 to 6340 µM). Further, the MFC with Candida spp. was 500 to 2000 µg/mL (≈ 1580 to 6340 µM). The MFC/MIC in the experiment with Candida spp. was 1–4.
As to `CNC(=S)NNS(=O)(=O)c1ccccc1` [WZ4, 2-(Benzenesulfonyl)-N-Methylhydrazine-1-Carbothioamide], the decrease in viability in experiment [1] (24 h, 1 µM) is reported as ~ 7%; in experiment [1] (24 h, across 1–500 µM), 7–84%; in experiment [1] (48 h, 1 µM), ~ 12%; in experiment [1] (48 h, across 1–500 µM) it was 12–92%; in the experiment with Du145 (prostate cancer) (DU145, 48 h, 1 µM), ~ 10%; in the experiment on Du145 (prostate cancer) (Du145, 24 h, 1 µM), ~ 10%. Moreover, the decrease in viability in experiment [2] (HepG2, 24 h, 1 µM) is ~ 4%; in experiment [2] (HepG2, 24 h, 200 µM), ~ 18%; in experiment [2] (HepG2, 48 h, 1 µM), ~ 3%; in the experiment on WS1 (fibroblasts) (24 h, all concentrations tested (1–500 µM)), 10–52%; in the experiment on WS1 (fibroblasts) (48 h, 200 µM), ~ 15%. Further, the “TI after 24h” value in experiment [1] (24 h) was determined as 4.537. Moreover, the “TI after 48h” value is 7.390 in experiment [1] (48 h); 1.272 and > 1 in the experiment with Du145 (prostate cancer) (48 h). In addition, the “concentration at which a statistically significant decrease in viability was observed” value in the experiment on Du145 (prostate cancer) (Du145, 24 h) was in the range of 1 to 500 µM; with Du145 (prostate cancer) (Du145, 48 h) it was 1 to 500 µM; in the experiment on WS1 (fibroblasts) (24 h), 1 to 500 µM. In addition, the “viability (reduced to)” value in experiment [2] (HepG2, 48 h, 50 µM) is reported as ~ 69%. The MIC with Candida spp. (C. albicans and C. krusei) lay in the range of 250 to 500 µg/mL (≈ 1020 to 2040 µM); in the experiment on Candida spp. (reference Candida spp.), 125 to 2000 µg/mL (≈ 510 to 8150 µM). This compound also came in with an MFC in the experiment on Candida spp. of 500 to 2000 µg/mL (≈ 2040 to 8150 µM). The MFC/MIC against Candida spp. is 1–4.
